We go through 31 molecules from patent US10329289B2, “6,7-dihydro-5H-pyrrolo[3,4-B]pyridin-5-one allosteric modulators of the M4 muscarinic acetylcholine receptor” (Merck Sharp & Dohme Corp., priority 2015, dated 2019).

The assay addresses T1, human M4 muscarinic acetylcholine receptor (Homo sapiens, UniProt P08173).
T1 construct: expressed in transfected cells; host or cells: CHO-K1
T1 sequence (P08173 1-479): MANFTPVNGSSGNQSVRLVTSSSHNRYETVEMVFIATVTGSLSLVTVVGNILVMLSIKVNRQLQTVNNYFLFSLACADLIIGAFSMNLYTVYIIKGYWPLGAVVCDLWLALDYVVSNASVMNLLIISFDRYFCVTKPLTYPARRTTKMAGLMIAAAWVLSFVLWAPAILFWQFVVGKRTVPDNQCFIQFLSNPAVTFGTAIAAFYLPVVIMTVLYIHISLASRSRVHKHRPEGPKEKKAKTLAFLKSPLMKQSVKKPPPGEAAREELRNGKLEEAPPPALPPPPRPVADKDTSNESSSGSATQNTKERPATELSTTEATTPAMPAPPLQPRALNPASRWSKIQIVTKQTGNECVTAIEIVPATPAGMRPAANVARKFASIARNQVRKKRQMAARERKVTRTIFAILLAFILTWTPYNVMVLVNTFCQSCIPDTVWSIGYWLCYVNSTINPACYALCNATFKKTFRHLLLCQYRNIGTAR
The experiment in a line: human FLIPR-based M4 PAM assay (Ca2+ mobilization, CHO-K1 cells with human M4 receptor and Gαqi5). It is filed as cell-based. Particulars: acetylcholine at 20% of maximum response, read-out: M4 PAM IP. Summed up:
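Calcium-mobilization (FLIPR) readout in dye-loaded CHO-K1 cells co-expressing human M4 receptor and Gαqi5. Potentiation measured against acetylcholine at a concentration giving 20% of maximal response, with an optional 70% addition; the reported value is the curve inflection point from a 4-parameter logistic fit.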
With `Cc1c(N2CCC(Oc3ccc(F)cc3)CC2)nc2c(c1C)C(=O)N(CCO)C2` [Example 266, 2-(4-(4-fluorophenoxy)piperidin-1-yl)-6-(2-hydroxyethyl)-3,4-dimethyl-6,7-dihydro-5H-pyrrolo[3,4-b]pyridin-5-one], the EC50 was found to be 105 nM.

As to `Cc1cc2c(nc1N1CCC(Oc3ccc4c(c3)CCOC4)CC1)CNC2=O` [Example 207, 2-(4-(isochroman-6-yloxy)piperidin-1-yl)-3-methyl-6,7-dihydro-5H-pyrrolo[3,4-b]pyridin-5-one], the EC50 was determined as 30 nM.

Take `COc1ccc(OC2CCN(c3nc4c(c(C(F)F)c3C)C(=O)NC4)CC2)cn1` [Example 307A, 4-(difluoromethyl)-2-(4-((6-methoxypyridin-3-yl)oxy)piperidin-1-yl)-3-methyl-6,7-dihydro-5H-pyrrolo[3,4-b]pyridin-5-one]: the EC50 turned out to be 279 nM. Regarding `Cc1cc2c(nc1N1CCC(Oc3ccc(O[C@@H](C)CO)nc3)CC1)CNC2=O` [Example 143A, (S)-2-(4-((6-((1-hydroxypropan-2-yl)oxy)pyridin-3-yl)oxy)piperidin-1-yl)-3-methyl-6,7-dihydro-5H-pyrrolo[3,4-b]pyridin-5-one], the EC50 is 101 nM.

With `Cc1cc2c(nc1N1CCC(Oc3ccc4[nH]ncc4c3Cl)CC1)CNC2=O` [Example 314, 2-(4-((4-Chloro-1H-indazol-5-yl)ox)piperidin-1-yl)-3-methyl-6,7-dihydro-5H-pyrrolo[3,4-b]pyridin-5-one], the EC50 came to 676 nM.

`Cc1cc2c(nc1N1CC[C@@H](Oc3cccc(C#N)c3)[C@H](O)C1)CNC2=O` [Example 43A, 3-(((3R,4R)-3-hydroxy-1-(3-methyl-5-oxo-6,7-dihydro-5H-pyrrolo[3,4-b]pyridin-2-yl)piperidin-4-yl)oxy)benzonitrile]: the EC50 is 155 nM. In the case of `Cc1cc2c(nc1N1CCC(OCC3CCOC3)CC1)CNC2=O` (stereo not shown) [Example 177, 3-methyl-2-(4-((tetrahydrofuran-3-yl)methoxy)piperidin-1-yl)-6,7-dihydro-5H-pyrrolo[3,4-b]pyridin-5-one], the EC50 is 1810 nM. As to `Cc1cc2c(nc1N1CCC(Oc3ccc4c(c3)COCC4)CC1)CNC2=O` [Example 112, 2-(4-(isochroman-7-yloxy)piperidin-1-yl)-3-methyl-6,7-dihydro-5H-pyrrolo[3,4-b]pyridin-5-one], the EC50 came to 20 nM. On to `COC(=O)c1cc2c(nc1N1CCC(Oc3ccc(OC)nc3)CC1)CNC2=O` [Example 160, methyl 2-(4-((6-methoxypyridin-3-yl)oxy)piperidin-1-yl)-5-oxo-6,7-dihydro-5H-pyrrolo[3,4-b]pyridine-3-carboxylate], for which the EC50 stood at 231 nM. The value for `Cc1cc2c(nc1N1CCC(Oc3ccon3)CC1)CNC2=O` [Example 86, 2-(4-(isoxazol-3-yloxy)piperidin-1-yl)-3-methyl-6,7-dihydro-5H-pyrrolo[3,4-b]pyridin-5-one] was 5690 nM; that for `Cc1cc2c(nc1N1CCC(OCC3(C)CC3C#N)CC1)CNC2=O` (single isomer, unassigned) [Example 191A] was 1470 nM. As for `Cc1cc2c(nc1N1CCC(Oc3ccc4c(c3)CCC(=O)N4)CC1)CNC2=O` [Example 118, 6-((1-(3-methyl-5-oxo-6,7-dihydro-5H-pyrrolo[3,4-b]pyridin-2-yl)piperidin-4-yl)oxy)-3,4-dihydroquinolin-2(1H)-one], the EC50 worked out at 141 nM. As for `Cc1cc2c(nc1N1CCC(Oc3cccc(C#N)c3)CC1)CNC2=O` [Example 3, 3-((1-(3-methyl-5-oxo-6,7-dihydro-5H-pyrrolo[3,4-b]pyridin-2-yl)piperidin-4-yl)oxy)benzonitrile], the EC50 was determined as 25 nM. `Cc1cc2c(nc1N1CCC(Oc3ccc(Cl)cc3)CC1)CNC2=O` [Example 76, 2-(4-(4-chlorophenoxy)piperidin-1-yl)-3-methyl-6,7-dihydro-5H-pyrrolo[3,4-b]pyridin-5-one]: the EC50 stood at 80 nM. Consider `Cc1cc2c(nc1N1CCC(Oc3ccc4c(c3)CCCO4)CC1)CNC2=O` [Example 116, 2-(4-(chroman-6-yloxy)piperidin-1-yl)-3-methyl-6,7-dihydro-5H-pyrrolo[3,4-b]pyridin-5-one], for which the EC50 amounted to 45 nM. As for `Cc1nc2cc(OC3CCN(c4nc5c(cc4C)C(=O)NC5)CC3)ccc2[nH]1` [Example 149, 3-methyl-2-(4-((2-methyl-1H-benzo[d]imidazol-5-yl)oxy)piperidin-1-yl)-6,7-dihydro-5H-pyrrolo[3,4-b]pyridin-5-one], the EC50 worked out at 1000 nM. As to `Cc1cc2c(nc1N1CCC(Oc3cnc4c(c3)COC4)CC1)CN(C)C2=O` [Example 49, 2-(4-((5,7-dihydrofuro[3,4-b]pyridin-3-yl)oxy)piperidin-1-yl)-3,6-dimethyl-6,7-dihydro-5H-pyrrolo[3,4-b]pyridin-5-one], the EC50 is 94 nM. With `Cc1c(N2CCC(Oc3ccc4c(c3)COC4)CC2)nc2c(c1C)C(=O)N(CC(=O)O)C2` [Example 266B, 2-(2-(4-((1,3-dihydro-2-benzofuran-5-yl)oxy)piperidin-1-yl)-3,4-dimethyl-5-oxo-5,7-dihydro-6H-pyrrolo[3,4-b]pyridin-6-yl)acetic acid], the EC50 was found to be 53 nM. For `Cc1cc2c(nc1N1CC[C@H](OCC3(C)CC3)C(F)(F)C1)CNC2=O` [Example 171B, (S)-2-(3,3-difluoro-4-((1-methylcyclopropyl)meth-oxy)piperidin-1-yl)-3-methyl-6,7-dihydro-5H-pyrrolo[3,4-b]pyridin-5-one], the EC50 was 14 nM.

On to `CCN1Cc2nc(N3CCC(Oc4ccc(OC)nc4)CC3)c(C)cc2C1=O` [Example 232, 6-Ethyl-2-(4-((6-methoxypyridin-3-yl)oxy)piperidin-1-yl)-3-methyl-6,7-dihydro-5H-pyrrolo[3,4-b]pyridin-5-one], for which the EC50 came to 81 nM. Regarding `Cc1cc2c(nc1N1CCC(OCC3(C)CC3)CC1)[C@@H](CO)N(C)C2=O` [Example 339, (S)-7-(hydroxymethyl)-3,6-dimethyl-2-(4-((1-methylcyclopropyl)methoxy)piperidin-1-yl)-6,7-dihydro-5H-pyrrolo[3,4-b]pyridin-5-one], the EC50 was 13 nM. In the case of `Cc1cc2c(nc1N1CCC(Oc3cnc4[nH]nc(C)c4c3)CC1)CNC2=O` [Example 197, 3-methyl-2-(4-((3-methyl-1H-pyrazolo[3,4-b]pyridin-5-yl)oxy)piperidin-1-yl)-6,7-dihydro-5H-pyrrolo[3,4-b]pyridin-5-one], the EC50 was determined as 6070 nM.

Regarding `Cc1cc2c(nc1N1CCC(Oc3cnc4c(c3)COC4)CC1)[C@@H](CO)N(C)C2=O` [Example 278A, (S)-2-(4-((5,7-dihydrofuro[3,4-b]pyridin-3-yl)oxy)piperidin-1-yl)-7-(hydroxymethyl)-3,6-dimethyl-6,7-dihydro-5H-pyrrolo[3,4-b]pyridin-5-one], the EC50 was found to be 76 nM. With `Cc1cc2c(nc1N1CCC(Oc3ccc(NCCO)nc3)CC1)CNC2=O` [Example 324E, 2-(4-((6-((2-Hydroxyethyl)amino)pyridin-3-yl)oxy)piperidin-1-yl)-3-methyl-6,7-dihydro-5H-pyrrolo[3,4-b]pyridin-5-one], the EC50 turned out to be 420 nM.

Regarding `COc1ccc(OC2[C@@H]3C[C@H]2CN(c2nc4c(cc2C)C(=O)NC4)C3)cn1` (single isomer, unassigned) [Example 185A], the EC50 stood at 8630 nM. The value for `Cc1cc2c(nc1N1CCC(Oc3ccc4c(c3)COC4)CC1)[C@H](CO)N(C)C2=O` [Example 282, (R)-2-(4-((1,3-dihydro-2-benzofuran-5-yl)oxy)piperidin-1-yl)-7-(hydroxymethyl)-3,6-dimethyl-6,7-dihydro-5H-pyrrolo[3,4-b]pyridin-5-one] was 623 nM; that for `Cc1cc2c(nc1N1CCC(Oc3ccc4c(c3)OCC(=O)N4)CC1)CNC2=O` [Example 133, 7-((1-(3-methyl-5-oxo-6,7-dihydro-5H-pyrrolo[3,4-b]pyridin-2-yl)piperidin-4-yl)oxy)-2H-benzo[b][1,4]oxazin-3(4H)-one] was 611 nM; that for `COCCN1Cc2nc(N3CCC(Oc4ccc(OC)nc4)CC3)c(C)cc2C1=O` [Example 252, 6-(2-methoxyethyl)-2-(4-((6-methoxypyridin-3-yl)oxy)piperidin-1-yl)-3-methyl-6,7-dihydro-5H-pyrrolo[3,4-b]pyridin-5-one] was 94 nM. `Cc1cc2c(nc1N1CCC(Oc3ccc4c(cnn4C)c3)CC1)CN(CO)C2=O` [Example 272, 6-(Hydroxymethyl)-3-methyl-2-(4-((1-methyl-1H-indazol-5-yl)oxy)piperidin-1-yl)-6,7-dihydro-5H-pyrrolo[3,4-b]pyridin-5-one]: the EC50 was 395 nM. For the molecule `Cc1cc2c(nc1N1CCC(Oc3ccc4c(c3)COC4)CC1)CN([C@@H](C)CO)C2=O` [Example 268D, (S)-2-(4-((1,3-dihydro-2-benzofuran-5-yl)oxy)piperidin-1-yl)-6-(1-hydroxypropan-2-yl)-3-methyl-6,7-dihydro-5H-pyrrolo[3,4-b]pyridin-5-one], the EC50 stood at 28 nM. As for `CCOc1ccc(OC2CCN(c3nc4c(cc3C)C(=O)NC4)CC2)cn1` [Example 34, 2-(4-((6-ethoxypyridin-3-yl)oxy)piperidin-1-yl)-3-methyl-6,7-dihydro-5H-pyrrolo[3,4-b]pyridin-5-one], the EC50 is 26 nM.
